Experimental data taken from patent US11297838B2, “Pesticidal compositions and methods” (CORTEVA AGRISCIENCE LLC, priority 2018, dated 2022).

Legend:
Type in all cases: in vivo
[1] = test system: Yellow Fever Mosquito (Aedes aegypti, AEDSAE); details: about 1 day-old larvae, 4000 ppm master solution diluted, 3 days, room temperature
Method: Insecticidal Test for Yellow Fever Mosquito (Aedes aegypti, AEDSAE) (“YFM”)
Master plates containing 400 μg of a molecule dissolved in 100 μL of dimethyl sulfoxide (DMSO) (equivalent to a 4000 ppm solution) are used. A master plate of assembled molecules contains 15 μL per well. To this plate, 135 μL of a 90:10 water/acetone mixture is added to each well. A robot (Biomek® NXP Laboratory Automation Workstation) is programmed to dispense 15 μL aspirations from the master plate into an empty 96-well shallow plate (“daughter” plate). There are 6 reps (“daughter” plates) created per master. The created “daughter” plates are then immediately infested with YFM larvae.
The day before plates are to be treated, mosquito eggs are placed in Millipore water containing liver powder to begin hatching (4 g. into 400 mL). After the “daughter” plates are created using the robot, they are infested with 220 μL of the liver powder/larval mosquito mixture (about 1 day-old larvae). After plates are infested with mosquito larvae, a non-evaporative lid is used to cover the plate to reduce drying. Plates are held at room temperature for 3 days prior to grading. After 3 days, each well is observed and scored based on mortality. In the reporting of the results, the “YFM Rating Table” was used.

[2] = test system: Beet Armyworm (Spodoptera exigua, LAPHEG); test: Insecticidal test for beet armyworm (BAW), 128-well diet tray assay; details: 168 h, 50 μg/cm^2 on artificial diet, second instar larvae, five to seven days, 25° C., read-out: BAW rating, % Control (or Mortality)
Method: Insecticidal Test for Beet Armyworm (Spodoptera exigua, LAPHEG) (“BAW”)
Bioassays on beet armyworm (BAW; Spodoptera exigua: Lepidoptera) are conducted using a 128-well diet tray assay. One to five second instar BAW larvae are placed in each well (3 mL) of the diet tray that had been previously filled with 1 mL of artificial diet to which 50 μg/cm^2 of the test compound (dissolved in 50 μL of 90:10 acetone-water mixture) had been applied (to each of eight wells) and then allowed to dry. Trays are covered with a clear self-adhesive cover, vented to allow gas exchange, and held at 25° C., 14:10 light-dark for five to seven days. Percent mortality is recorded for the larvae in each well; activity in the eight wells is then averaged. In the reporting of the results, the “BAW & CL Rating Table” was used.

[3] = test system: Cabbage Looper (Trichloplusia ni, TRIPNI); test: Insecticidal test for cabbage looper (CL), 128-well diet tray assay; details: Trichoplusia ni, 168 h; 50 μg/cm^2 on artificial diet, second instar larvae, five to seven days, 25° C.; read-out: CL rating, % Control (or Mortality)
Method: Insecticidal Test for Cabbage Looper (Trichloplusia ni, TRIPNI) (“CL”)
Bioassays on cabbage looper (CL; Trichloplusia ni: Lepidoptera) are conducted using a 128-well diet tray assay. One to five second instar CL larvae are placed in each well (3 mL) of the diet tray that had been previously filled with 1 mL of artificial diet to which 50 μg/cm^2 of the test compound (dissolved in 50 μL of 90:10 acetone-water mixture) had been applied (to each of eight wells) and then allowed to dry. Trays are covered with a clear self-adhesive cover, vented to allow gas exchange, and held at 25° C., 14:10 light-dark for five to seven days. Percent mortality is recorded for the larvae in each well; activity in the eight wells is then averaged. In the reporting of the results, the “BAW & CL Rating Table” was used.

In the case of `CC(C)c1ccccc1N1C(=O)CS/C1=N\C(=O)OCCc1ccc(-c2ncn(-c3ccc(OC(F)(F)F)cc3)n2)cc1` [A2, 4-(1-(4-(Trifluoromethoxy)phenyl)-1H-1,2,4-triazol-3-yl)phenethyl (Z)-(3-(2-isopropylphenyl)-4-oxothiazolidin-2-ylidene)carbamate], the “YFM rating, % Control (or Mortality)” value [1] is reported as “A (80-100)”, the mortality at 50 µg/cm2 [2] is reported as 50 to 100% and the mortality at 50 µg/cm2 [3] is reported as 50 to 100%.

For `CCOc1ccccc1N1C(=O)CS/C1=N\C(=O)OCCc1ccc(-c2ncn(-c3ccc(OC(F)(F)F)cc3)n2)cc1` [A5, 4-(1-(4-(Trifluoromethoxy)phenyl)-1H-1,2,4-triazol-3-yl)phenethyl (Z)-(3-(2-ethoxyphenyl)-4-oxothiazolidin-2-ylidene)carbamate], the “YFM rating, % Control (or Mortality)” value [1] was “A (80-100)”, the mortality at 50 µg/cm2 [2] was 0 to 50% and the mortality at 50 µg/cm2 [3] was 50 to 100%.

`CCCCc1ccccc1N1C(=O)CS/C1=N\C(=O)OCCc1ccc(-c2ncn(-c3ccc(OC(F)(F)F)cc3)n2)cc1` [A6, 4-(1-(4-(Trifluoromethoxy)phenyl)-1H-1,2,4-triazol-3-yl)phenethyl (Z)-(3-(2-butylphenyl)-4-oxothiazolidin-2-ylidene)carbamate] was tested, and the “YFM rating, % Control (or Mortality)” value [1] was “A (80-100)”, the mortality at 50 µg/cm2 [2] was 50 to 100% and the mortality at 50 µg/cm2 [3] was 50 to 100%.

In the case of `O=C(/N=C1\SCC(=O)N1c1ccccc1CCC1CC1)OCCc1ccc(-c2ncn(-c3ccc(OC(F)(F)F)cc3)n2)cc1` [A7, 4-(1-(4-(Trifluoromethoxy)phenyl)-1H-1,2,4-triazol-3-yl)phenethyl (Z)-(3-(2-(2-cyclopropylethyl)phenyl)-4-oxothiazolidin-2-ylidene)carbamate], the “YFM rating, % Control (or Mortality)” value [1] is reported as “A (80-100)”, the mortality at 50 µg/cm2 [2] is reported as 0 to 50% and the mortality at 50 µg/cm2 [3] is reported as 50 to 100%.

For `O=C(/N=C1\SCC(=O)N1c1ccccc1CCC(F)(F)F)OCCc1ccc(-c2ncn(-c3ccc(OC(F)(F)F)cc3)n2)cc1` [A8, 4-(1-(4-(Trifluoromethoxy)phenyl)-1H-1,2,4-triazol-3-yl)phenethyl (Z)-(4-oxo-3-(2-(3,3,3-trifluoropropyl)phenyl)thiazolidin-2-ylidene)carbamate], the “YFM rating, % Control (or Mortality)” value [1] was “A (80-100)”, the mortality at 50 µg/cm2 [2] was 50 to 100% and the mortality at 50 µg/cm2 [3] was 50 to 100%.

In the case of `O=C(/N=C1\SCC(=O)N1c1ccccc1/C=C/C(F)(F)F)OCCc1ccc(-c2ncn(-c3ccc(OC(F)(F)F)cc3)n2)cc1` [A9, 4-(1-(4-(Trifluoromethoxy)phenyl)-1H-1,2,4-triazol-3-yl)phenethyl ((Z)-4-oxo-3-(2-((E)-3,3,3-trifluoroprop-1-en-1-yl)phenyl)thiazolidin-2-ylidene)carbamate], the “YFM rating, % Control (or Mortality)” value [1] is reported as “A (80-100)”, the mortality at 50 µg/cm2 [2] is reported as 50 to 100% and the mortality at 50 µg/cm2 [3] is reported as 50 to 100%.

`Cc1ccc(C(C)C)c(N2C(=O)CS/C2=N\C(=O)OCCc2ccc(-c3ncn(-c4ccc(OC(F)(F)C(F)(F)F)cc4)n3)cc2)c1` [A44, 4-(1-(4-(Perfluoroethoxy)phenyl)-1H-1,2,4-triazol-3-yl)phenethyl (Z)-(3-(2-isopropyl-5-methylphenyl)-4-oxothiazolidin-2-ylidene)carbamate] was tested, and the mortality at 50 µg/cm2 [2] was 50 to 100% and the mortality at 50 µg/cm2 [3] was 50 to 100%.

`CC(C)c1ccccc1N1C(=O)CS/C1=N\C(=O)OCCc1ccc(-c2ncn(-c3ccc(OC(F)(F)C(F)(F)F)cc3)n2)cc1` [A45, 4-(1-(4-(Perfluoroethoxy)phenyl)-1H-1,2,4-triazol-3-yl)phenethyl (Z)-(3-(2-isopropylphenyl)-4-oxothiazolidin-2-ylidene)carbamate] was tested, and the mortality at 50 µg/cm2 [2] was 50 to 100% and the mortality at 50 µg/cm2 [3] was 50 to 100%.

`Cc1ccc(C(C)C)c(N2C(=O)CS/C2=N\C(=O)OCC(Cl)c2ccc(-c3ncn(-c4ccc(OC(F)(F)F)cc4)n3)cc2)c1` (stereo not drawn) [A46, 2-Chloro-2-(4-(1-(4-(trifluoromethoxy)phenyl)-1H-1,2,4-triazol-3-yl)phenyl)ethyl (Z)-(3-(2-isopropyl-5-methylphenyl)-4-oxothiazolidin-2-ylidene)carbamate] showed a mortality at 50 µg/cm2 [2] of 50 to 100% and a mortality at 50 µg/cm2 [3] of 50 to 100%.

With `CC(C)c1ccccc1N1C(=O)CS/C1=N\C(=O)OCC(Cl)c1ccc(-c2ncn(-c3ccc(OC(F)(F)F)cc3)n2)cc1` (stereo not drawn) [A47, 2-Chloro-2-(4-(1-(4-(trifluoromethoxy)phenyl)-1H-1,2,4-triazol-3-yl)phenyl)ethyl (Z)-(3-(2-isopropylphenyl)-4-oxothiazolidin-2-ylidene)carbamate] the mortality at 50 µg/cm2 [2] was 50 to 100% and the mortality at 50 µg/cm2 [3] was 50 to 100%.

`CC(C)c1ccc(Cl)cc1N1C(=O)CS/C1=N\C(=O)OCC(Cl)c1ccc(-c2ncn(-c3ccc(OC(F)(F)F)cc3)n2)cc1` (stereo not drawn) [A48, 2-Chloro-2-(4-(1-(4-(trifluoromethoxy)phenyl)-1H-1,2,4-triazol-3-yl)phenyl)ethyl (Z)-(3-(5-chloro-2-isopropylphenyl)-4-oxothiazolidin-2-ylidene)carbamate] was tested, and the mortality at 50 µg/cm2 [2] was 50 to 100% and the mortality at 50 µg/cm2 [3] was 50 to 100%.

Work on `CCC(C)Oc1ccc(C)cc1N1C(=O)CS/C1=N\C(=O)OC(C)Cc1ccc(-c2ncn(-c3ccc(OC(F)(F)F)cc3)n2)cc1` (stereo not drawn) [A49, 1-(4-(1-(4-(Trifluoromethoxy)phenyl)-1H-1,2,4-triazol-3-yl)phenyl)propan-2-yl (Z)-(3-(2-(sec-butoxy)-5-methylphenyl)-4-oxothiazolidin-2-ylidene)carbamate] yielded a mortality at 50 µg/cm2 [2] of 50 to 100% and a mortality at 50 µg/cm2 [3] of 50 to 100%.

`CC(Cc1ccc(-c2ncn(-c3ccc(OC(F)(F)F)cc3)n2)cc1)OC(=O)/N=C1\SCC(=O)N1c1ccccc1C(C)C` (stereo not drawn) [A50, 1-(4-(1-(4-(Trifluoromethoxy)phenyl)-1H-1,2,4-triazol-3-yl)phenyl)propan-2-yl (Z)-(3-(2-isopropylphenyl)-4-oxothiazolidin-2-ylidene)carbamate] showed a mortality at 50 µg/cm2 [2] of 50 to 100% and a mortality at 50 µg/cm2 [3] of 50 to 100%.

`CCOc1ccccc1N1C(=O)CS/C1=N\C(=O)OC(C)Cc1ccc(-c2ncn(-c3ccc(OC(F)(F)F)cc3)n2)cc1` (stereo not drawn) [A51, 1-(4-(1-(4-(Trifluoromethoxy)phenyl)-1H-1,2,4-triazol-3-yl)phenyl)propan-2-yl (Z)-(3-(2-ethoxyphenyl)-4-oxothiazolidin-2-ylidene)carbamate] showed a mortality at 50 µg/cm2 [2] of 50 to 100% and a mortality at 50 µg/cm2 [3] of 50 to 100%.

Compound `CCc1cccc(C)c1N1C(=O)CS/C1=N\C(=O)OC(C)Cc1ccc(-c2ncn(-c3ccc(OC(F)(F)F)cc3)n2)cc1` (stereo not drawn) [A52, 1-(4-(1-(4-(Trifluoromethoxy)phenyl)-1H-1,2,4-triazol-3-yl)phenyl)propan-2-yl (Z)-(3-(2-ethyl-6-methylphenyl)-4-oxothiazolidin-2-ylidene)carbamate] has a mortality at 50 µg/cm2 [2] of 50 to 100% and a mortality at 50 µg/cm2 [3] of 50 to 100%.

In the case of `Cc1ccc(C(C)C)c(-n2ccs/c2=N\C(=O)OCCc2ccc(-c3ncn(-c4ccc(OC(F)(F)F)cc4)n3)cc2)c1` [A53, 4-(1-(4-(Trifluoromethoxy)phenyl)-1H-1,2,4-triazol-3-yl)phenethyl (Z)-(3-(2-isopropyl-5-methylphenyl)thiazol-2(3H)-ylidene)carbamate], the mortality at 50 µg/cm2 [2] is reported as 50 to 100% and the mortality at 50 µg/cm2 [3] is reported as 50 to 100%.

`Cc1ccc(C(C)C)c(-n2ccs/c2=N\C(=O)OCC(F)c2ccc(-c3ncn(-c4ccc(OC(F)(F)F)cc4)n3)cc2)c1` (stereo not drawn) [A54, 2-Fluoro-2-(4-(1-(4-(trifluoromethoxy)phenyl)-1H-1,2,4-triazol-3-yl)phenyl)ethyl (Z)-(3-(2-isopropyl-5-methylphenyl)thiazol-2(3H)-ylidene)carbamate] was tested, and the mortality at 50 µg/cm2 [2] was 50 to 100% and the mortality at 50 µg/cm2 [3] was 50 to 100%.

In the case of `Cc1ccc(C(C)C)c(-n2ccs/c2=N\C(=O)OC(C)Cc2ccc(-c3ncn(-c4ccc(OC(F)(F)F)cc4)n3)cc2)c1` (stereo not drawn) [A55, 1-(4-(1-(4-(Trifluoromethoxy)phenyl)-1H-1,2,4-triazol-3-yl)phenyl)propan-2-yl (Z)-(3-(2-isopropyl-5-methylphenyl)thiazol-2(3H)-ylidene)carbamate], the mortality at 50 µg/cm2 [2] is reported as 50 to 100% and the mortality at 50 µg/cm2 [3] is reported as 50 to 100%.
